Measurements: patent US20240115654A1, “INTRAVENOUS ADMINISTRATION OF ENGINEERED ANTIMICROBIAL AMPHIPHILIC PEPTIDES” (priority 2021, published 2024)
Several values for one entry are separate records, joined by “and”; a condition that tells them apart may be missing. Identical values can stand only once. Peptide text beside a SMILES is read from it.

From the text: All subjects who met eligibility criteria were confined to the clinical research unit from […] through Day 3. At admission, physical examination, vital signs, 12 lead ECG and weight were obtained, medical and medication history were updated if necessary, safety blood tests (hematology and chemistry), urinalysis, urine drug screen and an alcohol breath test were repeated and a urine pregnancy test was done for women of childbearing potential.
At each dose level, there were 2 sentinel subjects, (1 active, 1 placebo), who were dosed at least 48 hours in advance of the other subjects in their respective group. Following review of safety data, including physical examination, vital signs, and review of adverse events from the first 2 subjects, enrolment in the cohort continued.
A 12-lead ECG was performed on Day 1, within 60 minutes of infusion start (in triplicate), mid-way through the infusion, at the completion of the infusion, 30 minutes after completion of the infusion and at various timepoints following the end of the infusion.
Vital signs were recorded within 60 minutes pre-dose, at the mid-point of the infusion and post dose vitals were assessed at completion of the infusion, 0.5, 1, 2, 3, 4, 6, 9, 12, 24 and 48 hours post dose, after at least 3 minutes of rest in supine position.
Subjects returned to the study center 7 days after dosing, for the termination visit. A full physical examination, vital signs and weight were obtained, concomitant medications were updated if necessary, safety blood specimens (haematology and chemistry, PT and aPTT) and urine were collected for urinalysis and urine drug screening. A serum pregnancy test was done for women of childbearing potential and a 12-lead ECG was performed.
In this study dose limiting toxicity (DLT) was defined as any drug related ≥Grade 3 AEs occurring despite optimal therapeutic interventions (which included but were not limited to allergic/hypersensitivity reactions, dermatological reactions/infusion site reactions, haematological toxicities such as neutropenia, thrombocytopenia and anaemia and clinical chemistry abnormalities) experienced up to Day 7 (Termination Visit).
(§1) All subjects who received any amount of study drug were included in the safety analysis (Safety population).
The study was a double blinded, randomized, placebo-controlled study. The placebo administered was 0.9% sodium chloride.
On Day 1 (day of dosing), subjects were randomly assigned either peptide IV or Placebo IV. At each dose level, there were 2 sentinel subjects, (1 active, 1 placebo), who were dosed at least 48 hours in advance of the other subjects in their respective group. Following review of safety data, including physical examination, vital signs, and review of adverse events from the first 2 subjects, enrolment in the cohort continued. All subjects who met eligibility criteria were confined to the clinical research unit from Day −2 through Day 3. At admission, physical examination, vital signs, 12 lead ECG and weight were obtained, medical and medication history were updated if necessary, safety blood tests (hematology and chemistry), urinalysis, urine drug screen and an alcohol breath test were repeated and a urine pregnancy test was done for women of childbearing potential.
as §1

With CC(C)[C@H](NC(=O)[C@H](Cc1c[nH]c2ccccc12)NC(=O)[C@H](CCCNC(=N)N)NC(=O)[C@H](CCCNC(=N)N)NC(=O)[C@@H](NC(=O)[C@@H](NC(=O)[C@H](CCCNC(=N)N)NC(=O)[C@@H](NC(=O)[C@@H](NC(=O)[C@H](CCCNC(=N)N)NC(=O)[C@H](CCCNC(=N)N)NC(=O)[C@H](Cc1c[nH]c2ccccc12)NC(=O)[C@@H](NC(=O)[C@H](CCCNC(=N)N)NC(=O)[C@H](CCCNC(=N)N)NC(=O)[C@@H](NC(=O)[C@H](CCCNC(=N)N)NC(=O)[C@H](CCCNC(=N)N)NC(=O)[C@@H](NC(=O)[C@H](Cc1c[nH]c2ccccc12)NC(=O)[C@H](CCCNC(=N)N)NC(=O)[C@@H](N)CCCNC(=N)N)C(C)C)C(C)C)C(C)C)C(C)C)C(C)C)C(C)C)C(C)C)C(=O)N[C@@H](CCCNC(=N)N)C(=O)N[C@@H](CCCNC(=N)N)C(N)=O [SEQ ID NO: 1] (H-RRWVRRVRRVWRRVVRVVRRWVRR-NH2) the “Related TEAE Co[?], n participants” value (Pooled SEQ ID NO: 1 (N = 29)) was 0, the “Related TEAE F[?], n participants” value (Pooled SEQ ID NO: 1 (N = 29)) was 0 and the “Related TEAE Nervous system disorders, n participants” value (Pooled SEQ ID NO: 1 (N = 29)) was 0. For the same compound, the “Related TEAE O[?] (r38, respiratory SOC), n participants” value (Pooled SEQ ID NO: 1 (N = 29)) was 0, the “Related TEAE Pain in extremity, n participants” value (Pooled SEQ ID NO: 1 (N = 29)) was 0 and the “Related TEAE Respiratory, thoracic and m[?] disorders, n participants” value (Pooled SEQ ID NO: 1 (N = 29)) was 0. The “Related TEAE T[?], n participants” value (Pooled SEQ ID NO: 1 (N = 29)) was 0, the “Related TEAE [?] headache, n participants” value (Pooled SEQ ID NO: 1 (N = 29)) was 0 and the “Related TEAE, occurrences (M)” value (Pooled SEQ ID NO: 1 (N = 29)) was 12. The “TEAE A[?] (r19, skin SOC), n participants” value (Pooled SEQ ID NO: 1 (N = 29)) was 0, the “TEAE Blood and lymphatic system disorders, n participants” value (Pooled SEQ ID NO: 1 (N = 29)) was 0 and the “TEAE Constipation, n participants” value (Pooled SEQ ID NO: 1 (N = 29)) was 0. For the same compound, the “TEAE D[?] contact, M occurrences” value (Pooled SEQ ID NO: 1 (N = 29)) was 3, the “TEAE D[?] contact, n participants” value (Pooled SEQ ID NO: 1 (N = 29)) was 2 and the “TEAE Gastrointestinal disorders, M occurrences” value (Pooled SEQ ID NO: 1 (N = 29)) was 3. The “TEAE Gastrointestinal disorders, n participants” value (Pooled SEQ ID NO: 1 (N = 29)) was 2, the “TEAE General disorders and administration site conditions, M occurrences” value (Pooled SEQ ID NO: 1 (N = 29)) was 8 and the “TEAE General disorders and administration site conditions, n participants” value (Pooled SEQ ID NO: 1 (N = 29)) was 7. For the same compound, the “TEAE Injury, [?] and procedural complications, % participants” value (Pooled SEQ ID NO: 1 (N = 29)) was 48.3%, the “TEAE Injury, [?] and procedural complications, n participants” value (Pooled SEQ ID NO: 1 (N = 29)) was 14 and the “TEAE O[?] (r37, vascular SOC), M occurrences” value (Pooled SEQ ID NO: 1 (N = 29)) was 2. The “TEAE O[?] (r37, vascular SOC), n participants” value (Pooled SEQ ID NO: 1 (N = 29)) was 1, the “TEAE O[?] pain, n participants” value (Pooled SEQ ID NO: 1 (N = 29)) was 0 and the “TEAE Related (to study drug), M occurrences” value (Pooled SEQ ID NO: 1 (N = 29)) was 12. The “TEAE Related (to study drug), n participants” value (Pooled SEQ ID NO: 1 (N = 29)) was 2, the “TEAE Respiratory, thoracic and [?] disorders, n participants” value (Pooled SEQ ID NO: 1 (N = 29)) was 0 and the “TEAE Severity Grade 1, participants %” value (Pooled SEQ ID NO: 1 (N = 29)) was 82.8%. For the same compound, the “TEAE Severity Grade 1, participants n” value (Pooled SEQ ID NO: 1 (N = 29)) was 24, the “TEAE Skin reaction, M occurrences” value (Pooled SEQ ID NO: 1 (N = 29)) was 3 and the “TEAE Skin reaction, n participants” value (Pooled SEQ ID NO: 1 (N = 29)) was 2. For the same compound, the “TEAE V[?] (r24, general SOC), M occurrences” value (Pooled SEQ ID NO: 1 (N = 29)) was 4, the “TEAE V[?] (r24, general SOC), n participants” value (Pooled SEQ ID NO: 1 (N = 29)) was 3 and the “TEAE Vascular disorders, M occurrences” value (Pooled SEQ ID NO: 1 (N = 29)) was 5. The “TEAE Vascular disorders, n participants” value (Pooled SEQ ID NO: 1 (N = 29)) was 3, the “TEAE [?] (r26, general SOC), n participants” value (Pooled SEQ ID NO: 1 (N = 29)) was 0 and the “TEAE [?] (r39, vascular SOC), n participants” value (Pooled SEQ ID NO: 1 (N = 29)) was 0. For the same compound, the “TEAE [?] (r44, nervous SOC), n participants” value (Pooled SEQ ID NO: 1 (N = 29)) was 0, the “TEAE [?] (r52, blood SOC), n participants” value (Pooled SEQ ID NO: 1 (N = 29)) was 0 and the “TEAE, occurrences (M)” value (Pooled SEQ ID NO: 1 (N = 29)) was 52. For the same compound, the “Participants With At Least 1 TEAE, n (%)” value (Pooled SEQ ID NO: 1 (N = 35)) was 31 (88.6%), the “Participants With At Least 1 TEAE, occurrences m” value (Pooled SEQ ID NO: 1 (N = 35)) was 71 and 72 and the “Participants With At Least 1 Treatment-Related TEAE, n (%)” value (Pooled SEQ ID NO: 1 (N = 35)) was 13 (37.1%). For the same compound, the “Participants With At Least 1 Treatment-Related TEAE, occurrences m” value (Pooled SEQ ID NO: 1 (N = 35)) was 23, the “TEAE by system organ class: Blood and Lymphatic System Disorders, participants n (%)” value (Pooled SEQ ID NO: 1 (N = 35)) was 0 and the “TEAE by system organ class: Gastrointestinal Disorders, occurrences m” value (Pooled SEQ ID NO: 1 (N = 35)) was 4. The “TEAE by system organ class: Gastrointestinal Disorders, participants n (%)” value (Pooled SEQ ID NO: 1 (N = 35)) was 3 (8.6%), the “TEAE by system organ class: General Disorders and Administration Site Conditions, occurrences m” value (Pooled SEQ ID NO: 1 (N = 35)) was 17 and the “TEAE by system organ class: General Disorders and Administration Site Conditions, participants n (%)” value (Pooled SEQ ID NO: 1 (N = 35)) was 13 (37.1%). The “TEAE by system organ class: Infections and Infestations, occurrences m” value (Pooled SEQ ID NO: 1 (N = 35)) was 1, the “TEAE by system organ class: Infections and Infestations, participants n (%)” value (Pooled SEQ ID NO: 1 (N = 35)) was 1 (2.9%) and the “TEAE by system organ class: Injury, Poisoning, and Procedural Complications, occurrences m” value (Pooled SEQ ID NO: 1 (N = 35)) was 24. The “TEAE by system organ class: Injury, Poisoning, and Procedural Complications, participants n (%)” value (Pooled SEQ ID NO: 1 (N = 35)) was 18, the “TEAE by system organ class: Musculoskeletal and Connective Tissue Disorders, occurrences m” value (Pooled SEQ ID NO: 1 (N = 35)) was 6 and the “TEAE by system organ class: Musculoskeletal and Connective Tissue Disorders, participants n (%)” value (Pooled SEQ ID NO: 1 (N = 35)) was 6 (17.1%). The “TEAE by system organ class: Nervous System Disorders, occurrences m” value (Pooled SEQ ID NO: 1 (N = 35)) was 6, the “TEAE by system organ class: Nervous System Disorders, participants n (%)” value (Pooled SEQ ID NO: 1 (N = 35)) was 6 (17.1%) and the “TEAE by system organ class: Respiratory, Thoracic, and Mediastinal disorders, participants n (%)” value (Pooled SEQ ID NO: 1 (N = 35)) was 0. The “TEAE by system organ class: Skin and Subcutaneous Tissue Disorders, occurrences m” value (Pooled SEQ ID NO: 1 (N = 35)) was 9, the “TEAE by system organ class: Skin and Subcutaneous Tissue Disorders, participants n (%)” value (Pooled SEQ ID NO: 1 (N = 35)) was 7 (20.0%) and the “TEAE by system organ class: Vascular Disorders, occurrences m” value (Pooled SEQ ID NO: 1 (N = 35)) was 5. For the same compound, the “TEAE by system organ class: Vascular Disorders, participants n (%)” value (Pooled SEQ ID NO: 1 (N = 35)) was 3 (8.6%), the “TEAE severity Grade 1, occurrences m” value (Pooled SEQ ID NO: 1 (N = 35)) was 64 and the “TEAE severity Grade 1, participants n (%)” value (Pooled SEQ ID NO: 1 (N = 35)) was 30 (85.7%). The “TEAE severity Grade 2, occurrences m” value (Pooled SEQ ID NO: 1 (N = 35)) was 8, the “TEAE severity Grade 2, participants n (%)” value (Pooled SEQ ID NO: 1 (N = 35)) was 5 (14.3%) and the “TEAE severity Grade 3, participants n (%)” value (Pooled SEQ ID NO: 1 (N = 35)) was 0. The “TEAE severity Grade 4, participants n (%)” value (Pooled SEQ ID NO: 1 (N = 35)) was 0.
